Data reported in article PMC12062478, “Screening herbal and natural product libraries to aid discovery of novel allosteric modulators of human P2X7” (Purinergic Signalling, 2024).
Several values for one entry are separate records, joined by “and”; a condition that tells them apart may be missing. Equal entries are not always repeated. Where two headings read alike, the source gives them in different places. Numbered stars: 1 amine (or outer) side, 2 acyl side, 3 side chain; on linkers, the order of the positions; unused ones are H or OH. Bridge positions count the residues as written; N and C are the ends. Square brackets hold non-standard residues; d marks the D form. Peptide text beside a SMILES is read from it. I, II: the chains in the order shown. Actinocin(9to1) = Cc1c2oc3c(C)ccc(C(=O)[*:1])c3nc-2c(C(=O)[*:2])c(N)c1=O; dHica = CC(C)C[C@@H](O)C(=O)O; NMeV = CN[C@H](C(=O)O)C(C)C; NMeA = CN[C@@H](C)C(=O)O; βAla = NCCC(=O)O; Sar = CNCC(=O)O

Columns and labels:
P2X7 [1] = molecular target: T1, P2X7 (Homo sapiens, UniProt Q99572); test: fura-2 intracellular calcium assay in HEK-hP2X7 cells; type: cell-based; settings: fura-2-loaded HEK-hP2X7, 10 min pre-treatment, 1 mM ATP
T1 construct: expressed in transfected cells
T1 sequence (Q99572 1-595): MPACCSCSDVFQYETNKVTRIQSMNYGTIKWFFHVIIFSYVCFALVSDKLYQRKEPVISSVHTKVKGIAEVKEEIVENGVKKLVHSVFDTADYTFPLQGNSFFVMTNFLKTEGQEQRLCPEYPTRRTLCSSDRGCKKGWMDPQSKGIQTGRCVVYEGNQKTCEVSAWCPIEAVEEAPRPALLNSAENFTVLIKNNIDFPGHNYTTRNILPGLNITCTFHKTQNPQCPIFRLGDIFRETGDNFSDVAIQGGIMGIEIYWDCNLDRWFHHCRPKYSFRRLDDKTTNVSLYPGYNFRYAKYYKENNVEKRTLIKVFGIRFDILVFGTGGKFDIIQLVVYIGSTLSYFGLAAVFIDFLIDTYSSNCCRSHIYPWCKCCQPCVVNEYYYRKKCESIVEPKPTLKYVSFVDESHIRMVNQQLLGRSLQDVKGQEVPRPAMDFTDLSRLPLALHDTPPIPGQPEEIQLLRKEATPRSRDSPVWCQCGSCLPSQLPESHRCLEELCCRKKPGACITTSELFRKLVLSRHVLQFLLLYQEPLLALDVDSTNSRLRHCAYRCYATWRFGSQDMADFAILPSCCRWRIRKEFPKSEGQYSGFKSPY
Description: Supplementary Figure 3: Validation of P2X7 antagonist activity using a fura-2 assay. HEK-hP2X7 cells were loaded with fura-2AM (2µM) to measure intracellular calcium responses to ATP. Cells were loaded for 45 minutes at 37 °C and then pre-treated with various concentrations of test compounds for 10 minutes. For full methodological details please see [1]. Responses to 1mM ATP were assessed over 300 seconds using a Flexstation 3 plate reader. Ratiometric fura-2 data was converted to area under curve.

hP2X7 [2] = molecular target: T2, hP2X7 (Homo sapiens, UniProt Q99572); settings: cited from earlier work
T2 sequence (Q99572 1-595): T1 sequence (Q99572 1-595)

P2X7 [3] = molecular target: T1, P2X7; test: ATP-induced YO-PRO-1 dye uptake in HEK-hP2X7 cells; type: cell-based; settings: for P2X7 response (% of control): compound 10 µM injected 60 s before ATP; for Effect on ATP-mediated YO-PRO-1 uptake: 10 µM, 10 min pre-incubation
Description: HEK-hP2X7 or HEK-hP2X4 cells were plated at 2.5 × 10^4 cells per well (100 µL volume) the day before experiments into poly-D-lysine (Merck Millipore) coated 96-well plates (NUNC, Fisher Scientific #167-008). The membrane impermeant dye YO-PRO-1 iodide (Life Technologies, Fisher Scientific) was used at a final concentration of 2 µM in low divalent buffer (145 mM NaCl, 5 mM KCl, 0.2 mM CaCl2, 13 mM glucose, 10 mM HEPES, pH 7.3, osm 300–310). Media were removed from the plate, and 90 µL of YO-PRO-1 buffer was added per well. Plates were warmed to 37 °C for 5 min before recording. Data was acquired on a Flexstation 3 plate reader (Molecular Devices) using excitation wavelength 490 nm, emission wavelength 520 nm, and six reads per well (PMT medium). […] […] Pipette height was set to 80 µL and the rate of injection was 4.
YO-PRO-1 dye uptake assay data is plotted as a percentage of control where control responses are measured in the absence of plant extract. Cell viability data is plotted as a percentage of control or background-corrected fluorescence data. Concentration–response graphs were plotted using GraphPad Prism v6 with a non-linear regression fit (variable slope). IC50 values were generated from collated datasets from a minimum of three independent experiments. Statistical differences were determined by one-way ANOVA statistical tests performed using GraphPad Prism v6 with Dunnett’s multiple comparison post hoc test. Significance was taken as P ≤ 0.05.
We acquired a natural product library (Set IV) containing 419 compounds from NCI DTP and tested these on P2X7 responses using a YO-PRO-1 dye uptake in HEK293 cells stably expressing human P2X7 (HEK-hP2X7). […] This allowed us to assess for any immediate effect of the injected compound, and secondly, it allowed for any potential negative modulators to be pre-incubated with P2X7.

hP2X7 [4] = molecular target: T2, hP2X7; test: Whole-cell patch-clamp electrophysiology in HEK-hP2X7 cells; type: cell-based; settings: 10 µM with ATP 100 µM, 5-s application, −60 mV
Description: Stably expressing HEK-hP2X7 cells were plated onto 13-mm glass coverslips 24 h prior to use. Membrane currents were recorded in the whole-cell patch-clamp configuration using an EPC10 amplifier (HEKA Elektronik) and borosilicate glass electrodes (TF-150 World Precision Instruments), resistance […] when filled with standard internal solution (145 mM NaCl, 10 mM HEPES, 10 mM EGTA, pH 7.3). Cells were voltage-clamped at − 60 mV, and dialysis of intracellular contents was performed for 1 min prior to experimental procedures. Cells were continuously perfused by gravity feed with standard divalent buffer solution (145 mM NaCl, 5 mM KCl, 2 mM CaCl2, 1 mM MgCl2, 13 mM glucose, 10 mM HEPES, pH 7.3) prior to seal formation, and low divalent buffer solution was used for agonist and PAM application. Agonists were applied using a computer-controlled fast-flow system (RSC-160; Bio-Logic Scientific Instruments) with the perfusion capillaries placed in close proximity to the cell under investigation.
Fig. 6 Dioscin enhances P2X7-dependent pore formation and potentiates channel opening. A Dioscorea nipponica (organic) plant extract (30 µg/mL) increased ATP-dependent YO-PRO-1 iodide uptake. AZ10606120 (10 µM, grey bars) was added to block hP2X7. B YO-PRO-1 uptake following a co-stimulation of HEK-hP2X7 cells with 200 µM ATP ± the named compounds in the presence or absence of AZ10606120. YO-PRO-1 uptake was quantified between 50 and 300 s (n = 5). C Whole-cell patch-clamp recordings were performed at room temperature. Cells were voltage-clamped at − 60 mV, and responses to a 5-s stimulation of ATP (100 µM) followed by a 5-s stimulation of ATP (100 µM) + dioscin/diosgenin (10 µM) were measured from HEK-hP2X7 cells. Representative traces are shown. D Summary of normalised current amplitudes represented as a fold change compared to ATP responses in the absence of dioscin/diosgenin (n = 10–18 cells). E Concentration response to ATP in the presence of dioscin (10 µM, green) or vehicle (DMSO, black) using YO-PRO-1 uptake assay in HEK-hP2X7 and F HEK-293 cells. […]

[5] = screen for potential negative allosteric modulators
[6] = HEK-hP2X7, 10 min pre-treatment, ATP 1 mM, read-out: IC50 value (95% CI)

Compound: O=C(O[C@@H]1Cc2c(O)cc(O)cc2O[C@@H]1c1cc(O)c(O)c(O)c1)c1cc(O)c(O)c(O)c1 [EGCG, epigallocatechin gallate]
- P2X7 antagonist activity on ATP-induced calcium responses (P2X7 [1]): demonstrated P2X7 antagonist activity

Compound: O=C(O)c1cc(O)c(O)c(O)c1 [gallic acid]
- IC50 (hP2X7 [2]; inhibition of hP2X7 currents by electrophysiology, read-out: IC50 value): 4.26 µM

Compound: COC1=C(N)C(=O)c2nc(-c3nc(C(=O)O)c(C)c(-c4ccc(OC)c(OC)c4O)c3N)ccc2C1=O [Streptonigrin]
- P2X7 response (% of control) (P2X7 [3]; screen for PAM activity): 139.02 % of control

Compound: COc1ccc2c(c1OC)CN1CCc3cc4c(cc3C1C2)OCO4 (stereo not drawn) [Tetrahydroberberine]
- Effect on ATP-mediated YO-PRO-1 uptake (P2X7 [3]; ATP 1 mM): able to reduce ATP-mediated YO-PRO-1 uptake
- P2X7 response (% of control) (P2X7 [3]; [5]): 26.9 % of control

Compound: C[C@@H]1CC[C@@]2(OC1)O[C@H]1C[C@H]3[C@@H]4CC=C5C[C@@H](O)CC[C@]5(C)[C@H]4CC[C@]3(C)[C@H]1[C@@H]2C [Diosgenin, diosgenin]
- Potentiation of hP2X7 ion channel opening (hP2X7 [4]): not capable of potentiating P2X7 channel opening
- Effect on P2X7 responses (P2X7 [3]; purified glycosides/aglycone from potentiating extracts): could not potentiate responses

Compound: CCCCC[C@@H](O)[C@H]1C(=O)O[C@H](C)[C@@H](O)/C=C/C=C/C=C/C=C/C=C(\C)[C@@H](O)[C@H](O)[C@H](O)C[C@H](O)C[C@H](O)C[C@H](O)C[C@H](O)C[C@@H]1O [Lagosin]
- P2X7 response (% of control) (P2X7 [3]; screen for PAM activity): 148.84 % of control

Compound: Cc1c2oc3c(C)ccc(C(=O)N[C@@H]4C(=O)N[C@H](C(C)C)C(=O)N5CCC[C@H]5C(=O)N(C)CC(=O)N(C)[C@@H](C(C)C)C(=O)O[C@@H]4C)c3nc-2c(C(=O)N[C@@H]2C(=O)N[C@H](C(C)C)C(=O)N3CCC[C@H]3C(=O)N(C)CC(=O)N(C)[C@@H](C(C)C)C(=O)O[C@@H]2C)c(N)c1=O [Actinomycin] (I: T[dV]P[Sar][NMeV] / II: T[dV]P[Sar][NMeV]; ester I:1-I:C, II:1-II:C; linker I:N-II:N via Actinocin(9to1))
- P2X7 response (% of control) (P2X7 [3]; screen for PAM activity): 188.44 % of control

Compound: O=c1c(-c2ccc(O)cc2)coc2cc(O)cc(O)c12 [Genistein]
- Effect on YO-PRO-1 uptake at high concentrations (P2X7 [3]; > 30 µM, HEK-hP2X7): reduction of YO-PRO-1 uptake in hP2X7 cells at high concentrations
- IC50 (P2X7 [3]; IC50 value (95% CI)): 49.7 µM

Compound: Nc1ncnc2c1ncn2[C@@H]1O[C@H](COP(=O)(O)OP(=O)(O)OP(=O)(O)O)[C@@H](O)[C@H]1O [ATP, reference compound]
- EC50 (P2X7 [3]; ATP with vehicle (DMSO), no modulator): 131 µM and 110 µM

Compound: Cc1cc(O)c2c(c1)C(=O)c1cc(O)cc(O)c1C2=O [Emodin]
- IC50 (hP2X7 [2]; electrophysiological recordings, read-out: IC50): 3 µM
- IC50 (P2X7 [3]; [6]): 55.2 µM

Compound: COc1ccc2c(c1OC)-c1c(OC)c(OC)cc3c1[C@H](C2)NCC3 [NSC785187]
- P2X7 response (% of control) (P2X7 [3]; screen for PAM activity): 127.21 % of control

Compound: COc1cc(C=O)ccc1O [Vanilline]
- P2X7 response (% of control) (P2X7 [3]; screen for PAM activity): 158.27 % of control

Compound: COc1cc2c3c(c1O)-c1cc(O)ccc1C[C@H]3N(C)CC2 [NSC785167]
- P2X7 response (% of control) (P2X7 [3]; screen for PAM activity): 125.18 % of control

Compound: CC[C@H](C)[C@@H]1NC(=O)[C@@H]2CCCN2C(=O)[C@@H](CC(C)C)OC(=O)CCNC(=O)[C@H](C)N(C)C(=O)[C@H](C(C)C)N(C)C1=O [Destrusin B] (cyclo([dHica]PI[NMeV][NMeA][βAla]))
- P2X7 response (% of control) (P2X7 [3]; [5]): 46.65 % of control

Compound: CC1(C)CCC[C@]2(C)C3=C(CC[C@@H]12)C(=O)OC3 [Confertifolin]
- Effect on ATP-mediated YO-PRO-1 uptake (P2X7 [3]; ATP 1 mM): able to reduce ATP-mediated YO-PRO-1 uptake
- IC50 (P2X7 [3]; HEK-hP2X7, NCI Natural Product Set IV compounds, Fig. 1F, read-out: IC50 (dose inhibition experiments)): 3.86 µM
- Mechanism of action from ATP concentration–response curve (P2X7 [3]; compound 10 µM): potential non-competitive mechanism of action
- P2X7 response (% of control) (P2X7 [3]; [5]): 9.72 % of control

Compound: O=C(O[C@@H]1Cc2c(O)cc(O)cc2O[C@@H]1c1ccc(O)c(O)c1)c1cc(O)c(O)c(O)c1 [ECG, epicatechin gallate]
- IC50 (P2X7 [3]; IC50 value (95% CI)): 4.96 µM

Compound: COc1ccc2cc3[n+](cc2c1OC)CCc1cc2c(cc1-3)OCO2 [Berberine]
- P2X7 antagonist activity on ATP-induced calcium responses (P2X7 [1]): demonstrated P2X7 antagonist activity
- IC50 (P2X7 [3]; [6]): 5.17 µM

Compound: Ossamycin
- P2X7 response (% of control) (P2X7 [3]; screen for PAM activity): 145.55 % of control

Compound: Medicarpin
- P2X7 response (% of control) (P2X7 [3]; screen for PAM activity): 140.60 % of control

Compound: CC(C)=CCC[C@@H](C)C1=C(O)C(=O)C(C)=CC1=O [Perezone]
- P2X7 response (% of control) (P2X7 [3]; screen for PAM activity): 148.44 % of control

Compound: CC(=O)O[C@H]1C[C@]2(O)[C@@H]3CC[C@@H]4C[C@@H](O)CC[C@]4(C)[C@H]3CC[C@]2(C)[C@H]1C1=CC(=O)OC1 [Oleandrogenin]
- P2X7 response (% of control) (P2X7 [3]; [5]): 42.33 % of control

Compound: c1cc2c(c3c1C[C@@H]1NCCc4cc5c(c-3c41)OCO5)OCO2 [NSC785157]
- P2X7 response (% of control) (P2X7 [3]; screen for PAM activity): 152.97 % of control
